Experimental data from patent US10174035B2, “6-morpholinyl-2-pyrazolyl-9H-purine derivatives and their use as PI3K inhibitors” (Daiichi Sankyo Company, Limited, priority 2015, dated 2019).

Target: recombinant PI3K δ enzyme (Homo sapiens (Human), UniProt O00329)
Experiment: In vitro enzyme assay (Kinase-Glo luminescent kinase assay), PI3Kδ
Assay type: biochemical
Experimental: The Kinase-Glo luminescent kinase assay kit (from Promega) was used to measure kinase activity. In this assay, amount of ATP remaining in solution following a kinase reaction is measured. The effect of compounds on PI3Kδ inhibition was carried out by adding 2.29 μg/ml of recombinant PI3K δ enzyme (Proteros, Germany) to reaction mixture containing assay buffer (50 mM HEPES, pH 7.4, 50 mM NaCl, 0.05% CHAPS) supplemented with 10 mM MgCl2, 5 mM DTT, 60 μM Phosphatidyl inositol bisphosphate (PIP2) and 10 μM ATP in the absence or presence of different concentrations of the compounds in a final volume of 15 μl/well, in a 384 well plate. The reaction mixture was incubated for 2 hours at room temperature. At the end of incubation period the equal volume of Kinase-Glo plus (Promega, V3772), was added per well and the luminescence was measured after incubating for 10 minutes at room temperature in dark. Results were calculated by measuring the luminescence units of test samples to blanks containing no enzyme.
The compounds of the present invention were tested for their selectivity for PI3Kδ over PI3Kα, PI3Kβ and PI3Kγ following the above assay using specific recombinant enzymes (Proteros, Germany) for each kinase. Assay condition of kinase assay (PI3Kα, PI3Kβ, PI3Kγ and PI3Kδ) was as follows. Enzyme: 2.29 μg/mL; ATP: 10 μM; PIP2 substrate: 60 μM and Reaction Time: 2 hours.

Chain of recombinant PI3K δ enzyme (O00329 whole entry, species assumed): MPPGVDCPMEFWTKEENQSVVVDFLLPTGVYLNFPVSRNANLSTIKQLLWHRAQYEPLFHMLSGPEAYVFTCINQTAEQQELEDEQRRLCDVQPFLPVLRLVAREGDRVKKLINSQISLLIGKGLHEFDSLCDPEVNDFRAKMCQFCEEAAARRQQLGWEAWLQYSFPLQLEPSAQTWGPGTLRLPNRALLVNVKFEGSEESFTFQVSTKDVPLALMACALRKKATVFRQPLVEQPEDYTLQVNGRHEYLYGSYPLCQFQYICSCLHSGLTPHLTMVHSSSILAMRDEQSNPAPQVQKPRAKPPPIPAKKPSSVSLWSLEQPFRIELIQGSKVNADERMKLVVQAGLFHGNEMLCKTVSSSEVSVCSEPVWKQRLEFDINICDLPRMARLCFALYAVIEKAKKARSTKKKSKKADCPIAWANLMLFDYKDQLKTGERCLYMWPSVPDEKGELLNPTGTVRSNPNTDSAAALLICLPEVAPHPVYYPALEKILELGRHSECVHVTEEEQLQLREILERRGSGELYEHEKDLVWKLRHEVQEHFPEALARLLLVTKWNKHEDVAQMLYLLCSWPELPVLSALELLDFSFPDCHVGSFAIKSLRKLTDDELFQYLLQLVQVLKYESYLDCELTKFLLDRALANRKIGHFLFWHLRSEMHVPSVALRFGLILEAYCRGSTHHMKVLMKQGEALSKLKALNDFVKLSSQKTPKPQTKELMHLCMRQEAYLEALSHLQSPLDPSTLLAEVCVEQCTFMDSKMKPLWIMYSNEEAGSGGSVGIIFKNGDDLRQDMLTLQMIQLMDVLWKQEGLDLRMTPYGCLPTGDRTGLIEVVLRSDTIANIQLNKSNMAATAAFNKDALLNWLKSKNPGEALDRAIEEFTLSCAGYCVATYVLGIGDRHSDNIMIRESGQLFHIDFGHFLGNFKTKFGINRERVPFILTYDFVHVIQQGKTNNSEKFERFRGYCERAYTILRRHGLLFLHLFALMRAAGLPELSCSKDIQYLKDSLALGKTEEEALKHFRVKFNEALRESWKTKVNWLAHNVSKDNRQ
Chain of recombinant PI3K δ enzyme (P27986 whole entry partner, species assumed): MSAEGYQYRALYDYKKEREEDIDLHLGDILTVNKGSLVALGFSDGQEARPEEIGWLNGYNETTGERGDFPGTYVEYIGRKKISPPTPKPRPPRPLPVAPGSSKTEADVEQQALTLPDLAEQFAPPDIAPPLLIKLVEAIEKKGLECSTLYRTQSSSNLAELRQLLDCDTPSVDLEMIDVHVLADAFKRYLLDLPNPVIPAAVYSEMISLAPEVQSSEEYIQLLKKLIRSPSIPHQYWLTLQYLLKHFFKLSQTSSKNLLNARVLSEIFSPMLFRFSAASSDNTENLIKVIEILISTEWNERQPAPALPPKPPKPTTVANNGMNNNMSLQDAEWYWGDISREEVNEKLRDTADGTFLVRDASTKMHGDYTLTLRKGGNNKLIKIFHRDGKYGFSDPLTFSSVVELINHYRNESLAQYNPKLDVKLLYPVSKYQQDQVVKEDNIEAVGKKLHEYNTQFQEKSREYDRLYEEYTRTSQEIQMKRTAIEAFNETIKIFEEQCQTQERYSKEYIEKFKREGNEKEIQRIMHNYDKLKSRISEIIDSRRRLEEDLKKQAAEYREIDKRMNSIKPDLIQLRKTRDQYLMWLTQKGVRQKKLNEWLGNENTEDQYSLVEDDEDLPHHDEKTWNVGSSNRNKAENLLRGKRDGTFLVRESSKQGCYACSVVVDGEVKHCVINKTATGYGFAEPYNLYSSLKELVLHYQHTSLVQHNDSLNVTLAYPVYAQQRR

| SMILES | IC50 [nM] |
| --- | --- |
| Cn1cc(-c2nc(N3CCOCC3)c3nc(C(=O)N4CCN(S(C)(=O)=O)CC4)[nH]c3n2)cn1 [compound 34, [2-(1-Methyl-1H-pyrazol-4-yl)-6-(morpholin-4-yl)-9H-purin-8-yl][4-(methylsulfonyl)piperazin-1-yl]methanone] | 305 |
| C[C@@H]1CN(C2CN(C(=O)c3nc4c(N5CCOCC5)cc(-c5cnn(C)c5)nc4[nH]3)C2)C[C@H](C)O1 [Compound No. 119, {3-[(2R,6S)-2,6-dimethylmorpholin-4-yl]azetidin-1-yl}[5-(1-methyl-1H-pyrazol-4-yl)-7-(morpholin-4-yl)-3H-imidazo[4,5-b]pyridin-2-yl]methanone] | 5 |
| Cn1cc(-c2nc(N3CCOCC3)c3nc(C(=O)N4CCN(C5CCOCC5)CC4)[nH]c3n2)cn1 [compound 11, [2-(1-Methyl-1H-pyrazol-4-yl)-6-(morpholin-4-yl)-9H-purin-8-yl][4-(tetrahydro-2H-pyran-4-yl)piperazin-1-yl]methanone] | 26 |
| CN(CCN1CCOCC1)C(=O)c1nc2c(N3CCOCC3)nc(-c3cnn(C)c3)nc2[nH]1 [compound 60, N-methyl-2-(1-methyl-1H-pyrazol-4-yl)-6-(morpholin-4-yl)-N-[2-(morpholin-4-yl)ethyl]-9H-purine-8-carboxamide] | 159 |
| Cn1cc(-c2nc(N3CCOCC3)c3nc(C(=O)NC4CCCCC4)[nH]c3n2)cn1 [compound 33, N-cyclohexyl-2-(1-methyl-1H-pyrazol-4-yl)-6-(morpholin-4-yl)-9H-purine-8-carboxamide] | 366 |
| Cn1cc(-c2nc(N3CCOCC3)c3nc(C(=O)N4CCN(c5ncccn5)CC4)[nH]c3n2)cn1 [compound 27, [2-(1-Methyl-1H-pyrazol-4-yl)-6-(morpholin-4-yl)-9H-purin-8-yl][4-(pyrimidin-2-yl)piperazin-1-yl]methanone] | 128 |
| CCN(CCN1CCOCC1)C(=O)c1nc2c(N3CCOCC3)nc(-c3cnn(C)c3)nc2[nH]1 [compound 59, N-ethyl-2-(1-methyl-1H-pyrazol-4-yl)-6-(morpholin-4-yl)-N-[2-(morpholin-4-yl)ethyl]-9H-purine-8-carboxamide] | 206 |
| CN(C)C(=O)c1nc2c(N3CCOCC3)nc(-c3cnn(C)c3)nc2[nH]1 [compound 48, N,N-Dimethyl-2-(1-methyl-1H-pyrazol-4-yl)-6-(morpholin-4-yl)-9H-purine-8-carboxamide] | 76 |
| CCn1c(C(=O)N2CCC(N(C)C)CC2)nc2c(N3CCOCC3)nc(-c3cnn(C)c3)nc21 [compound 21, [4-(Dimethylamino)piperidin-1-yl][9-ethyl-2-(1-methyl-1H-pyrazol-4-yl)-6-(morpholin-4-yl)-9H-purin-8-yl]methanone] | 313 |
| Cc1n[nH]c(C)c1-c1nc(N2CCOCC2)c2nc(C(=O)N3CCC(N4CCOCC4)CC3)[nH]c2n1 [compound 16, [2-(3,5-Dimethyl-1H-pyrazol-4-yl)-6-(morpholin-4-yl)-9H-purin-8-yl][4-(morpholin-4-yl)piperidin-1-yl]methanone] | 88 |
| CN1CCC(NC(=O)c2nc3c(N4CCOCC4)nc(-c4cnn(C)c4)nc3[nH]2)CC1 [compound 47, N-(1-Methylpiperidin-4-yl)-2-(1-methyl-1H-pyrazol-4-yl)-6-(morpholin-4-yl)-9H-purine-8-carboxamide] | 139 |
| CCOC(=O)CC1CCN(C(=O)c2nc3c(N4CCOCC4)nc(-c4cnn(C)c4)nc3[nH]2)CC1 [compound 51, Ethyl (1-{[2-(1-methyl-1H-pyrazol-4-yl)-6-(morpholin-4-yl)-9H-purin-8-yl]carbonyl}piperidin-4-yl)acetate] | 56 |
| CN(C(=O)c1nc2c(N3CCOCC3)cc(-c3cnn(C)c3)nc2[nH]1)C1CCN(C2COC2)CC1 [Compound No. 131, N-Methyl-5-(1-methyl-1H-pyrazol-4-yl)-7-(morpholin-4-yl)-N-[1-(oxetan-3-yl)piperidin-4-yl]-3H-imidazo[4,5-b]pyridine-2-carboxamide] | 146 |
| Cn1cc(-c2nc(N3CCOCC3)c3nc(C(=O)N4CCC(CC(=O)O)CC4)[nH]c3n2)cn1 [compound 50, (1-{[2-(1-Methyl-1H-pyrazol-4-yl)-6-(morpholin-4-yl)-9H-purin-8-yl]carbonyl}piperidin-4-yl)acetic acid] | 205 |
| CC(=O)N1CCN(C(=O)c2nc3c(N4CCOCC4)nc(-c4cnn(C)c4)nc3[nH]2)CC1 [compound 39, 1-(4-{[2-(1-Methyl-1H-pyrazol-4-yl)-6-(morpholin-4-yl)-9H-purin-8-yl]carbonyl}piperazin-1-yl)ethanone] | 26 |
| Cc1nn(C)c(C)c1-c1nc2[nH]c(C(=O)N3CCC(N4CCOCC4)CC3)nc2c(N2CCOCC2)c1F [Compound No. 93] | 26 |
| CCn1c(C(=O)N2CCC(N3CCOCC3)CC2)nc2c(N3CCOCC3)nc(-c3cnn(C)c3)nc21 [compound 22, [9-Ethyl-2-(1-methyl-1-pyrazol-4-yl)-6-(morpholin-4-yl)-9H-purin-8-yl][4-(morpholin-4-yl)piperidin-1-yl]methanone] | 368 |
| Cn1cc(-c2nc(N3CCOCC3)c3nc(C(=O)N4CCn5ccnc5C4)[nH]c3n2)cn1 [compound 30, 5,6-Dihydroimidazo[1,2-a]pyrazin-7(8H)-yl[2-(1-methyl-1H-pyrazol-4-yl)-6-(morpholin-4-yl)-9H-purin-8-yl]methanone] | 627 |

Next, values leading:

| IC50 [nM] | SMILES |
| --- | --- |
| 17 | Cn1cc(-c2nc3[nH]c(C(=O)NCCCN4CCOCC4)nc3c(N3CCOCC3)c2F)cn1 [compound 124, 6-Fluoro-5-(1-methyl-1H-pyrazol-4-yl)-7-(morpholin-4-yl)-N-[3-(morpholin-4-yl)propyl]-3H-imidazo[4,5-b]pyridine-2-carboxamide] |
| 22 | Cc1nn(C)cc1-c1cc(N2CCOCC2)c2nc(C(=O)N3CCC(N4CCOCC4)CC3)n(C)c2n1 [compound 104, [5-(1,3-Dimethyl-1H-pyrazol-4-yl)-3-methyl-7-(morpholin-4-yl)-3H-imidazo[4,5-b]pyridin-2-yl][4-(morpholin-4-yl)piperidin-1-yl]methanone] |
| 21 | Cn1cc(-c2nc(N3CCOCC3)c3nc(C(=O)NCCCN4CCOCC4)[nH]c3n2)cn1 [compound 63, 2-(1-Methyl-1H-pyrazol-4-yl)-6-(morpholin-4-yl)-N-[3-(morpholin-4-yl)propyl]-9H-purine-8-carboxamide] |
| 7 | Cn1cc(-c2nc3[nH]c(C(=O)N4CCN(C5CCOCC5)CC4)nc3c(N3CCOCC3)c2F)cn1 [compound 81, [6-Fluoro-5-(1-methyl-1H-pyrazol-4-yl)-7-(morpholin-4-yl)-3H-imidazo[4,5-b]pyridin-2-yl][4-(tetrahydro-2H-pyran-4-yl)piperazin-1-yl]methanone] |
| 19 | C[C@@H]1CN(C2CCN(C(=O)c3nc4c(N5CCOCC5)cc(-c5cnn(C)c5)nc4[nH]3)CC2)C[C@H](C)O1 [compound 109, {4-[cis-2,6-Dimethylmorpholin-4-yl]piperidin-1-yl}[5-(1-methyl-1H-pyrazol-4-yl)-7-(morpholin-4-yl)-3H-imidazo[4,5-b]pyridin-2-yl]methanone] |
| 184 | Cn1cc(-c2nc3c(nc(C(=O)N4CCC(N5CCOCC5)CC4)n3C)c(N3CCOCC3)c2F)cn1 [compound 111, [6-Fluoro-3-methyl-5-(1-methyl-1-pyrazol-4-yl)-7-(morpholin-4-yl)-3H-imidazo[4,5-b]pyridin-2-yl][4-(morpholin-4-yl)piperidin-1-yl]methanone] |
| 147 | Cn1cc(-c2cc(N3CCOCC3)c3nc(C(=O)NCCN4CCOCC4)[nH]c3n2)cn1 [compound 103, 5-(1-Methyl-1H-pyrazol-4-yl)-7-(morpholin-4-yl)-N-[2-(morpholin-4-yl)ethyl]-3H-imidazo[4,5-b]pyridine-2-carboxamide] |
| 8 | O=C(c1nc2c(N3CCOCC3)nc(-c3cn[nH]c3)nc2[nH]1)N1CCC(N2CCOCC2=O)CC1 [compound 74, 4-(1-{[6-(Morpholin-4-yl)-2-(1H-pyrazol-4-yl)-9H-purin-8-yl]carbonyl}piperidin-4-yl)morpholin-3-one] |
| 19 | O=C(c1nc2c(N3CCOCC3)cc(-c3cn[nH]c3)nc2[nH]1)N1CCC(N2CCOCC2)CC1 [compound 133, [4-(Morpholin-4-yl)piperidin-1-yl][7-(morpholin-4-yl)-5-(1H-pyrazol-4-yl)-3H-imidazo[4,5-b]pyridin-2-yl]methanone] |
| 25 | Cn1cc(-c2nc3[nH]c(C(=O)N4CC(N5CCOCC5)C4)nc3c(N3CCOCC3)c2F)cn1 [compound 126, [6-Fluoro-5-(1-methyl-1H-pyrazol-4-yl)-7-(morpholin-4-yl)-3H-imidazo[4,5-b]pyridin-2-yl][3-(morpholin-4-yl)azetidin-1-yl]methanone] |
| 31 | Cc1nn(C)cc1-c1nc2[nH]c(C(=O)N3CCC(N4CCOCC4)CC3)nc2c(N2CCOCC2)c1Cl [compound 91, [6-Chloro-5-(1,3-dimethyl-1H-pyrazol-4-yl)-7-(morpholin-4-yl)-3H-imidazo[4,5-b]pyridin-2-yl][4-(morpholin-4-yl)piperidin-1-yl]methanone] |
| 365 | Cc1nn(C)c(C)c1-c1nc2[nH]c(C(=O)N3CCC(N4CCOCC4)CC3)nc2c(N2CCOCC2)c1C [compound 88, [6-Methyl-7-(morpholin-4-yl)-5-(1,3,5-trimethyl-1H-pyrazol-4-yl)-3H-imidazo[4,5-b]pyridin-2-yl][4-(morpholin-4-yl)piperidin-1-yl]methanone] |
